Our source for the IC50 values is US9988405B2, “O-phenyl chalcone compounds and uses thereof” (Neopanora Bio-technology (Zhuhai) Ltd., priority 2014, dated 2018).

Like-named read-outs stand apart in the source and are kept apart here.

Type in all cases: cell-based
Test [1] deals with human ovary cancer cells A2780. The test is described as follows: SRB anti-proliferative assay, A2780. The following applies: read-out: Anti-proliferative IC50, A2780. The procedure:
(§1) The present example evaluated the anti-tumor activity of the molecules provided by the present invention. The present example mainly used a method with SRB (sulforhodamine B) dying, in which proteins in the cell were stained with SRB dye to determine protein content in the cell so as to characterize cell growth density. Firstly, the test compound was formulated into a stock solution (10 mM), which was stored at 4° C. in a refrigerator. Prior to beginning the assay, the stock solution was diluted with DMSO into a series of different concentrations. The required concentrations were obtained by diluting with complete growth medium. Well growing cells were seeded in a 96-well plate (5000 cells/well, 100 uL) and cultured in an incubator at 37° C., 5% CO2, and 90% RH. 24 h later, the prepared compound solution (100 μL) was slowly added to cell solution in the 96-well plate, and the well with DMSO (final concentration 0.5%) instead of the drug was used as a drug free control. The plate was incubated for 48 h. In addition, a day 0 plate that was drug free was directly detected after cell seeded in the plate for 24 h. The 96-well plate was taken out and added with trichloroacetic acid (50 μL, final concentration 10%). The plate was incubated at 4° C. for 1 h to fix the cells.
(§2) The plate was washed with ultrapure water and air-dried. The plate was then stained with SRB dye (0.4% in 1% acetic acid, 100 μL) for 30 min at room temperature. The plate was then washed with 1% acetic acid and then air-dried. A Tris base solution (100 μL, 10 mM, pH10.4) was added, after which the plate was gently shaken for 1 h on an orbital shaker to ensure that the dyes were completed dissolved. The optical density (OD) was recorded on a TECAN Infinite M200 Pro multimode reader at 515 nm. The cell growth (% of control)=(OD value of wells added with drug−mean OD value of Day 0 plate)/(OD value of DMSO drug-free control well−mean OD value of Day 0 plate)*100.

Test [2] concerns human colon cancer cells HCT8. The test is described as follows: SRB anti-proliferative assay, HCT-8. Conditions: read-out: Anti-proliferative IC50, HCT-8. The procedure:
as §1, §2

In test [3] the test system is human lung cancer cells A549. The test is described as follows: SRB anti-proliferative assay, A549. Conditions: read-out: Anti-proliferative IC50, A549. The procedure:
as §1, §2

Test [4] has as its system human breast cancer cells MCF7. The test is described as follows: SRB anti-proliferative assay, MCF-7. The following applies: read-out: Anti-proliferative IC50, MCF-7. The procedure:
as §1, §2

Test [5] concerns human nasopharyngeal carcinoma cells CNE2. The test is described as follows: SRB anti-proliferative assay, CNE2. Conditions: read-out: Anti-proliferative IC50, CNE2. The protocol:
as §1, §2

Test [6] has as its system human colon cancer cells SW480. The test is described as follows: SRB anti-proliferative assay, SW480. Conditions: read-out: Anti-proliferative IC50, SW480. The protocol: as §1, §2
Test [7] relates to human liver cancer cell HepG2. The test is described as follows: SRB anti-proliferative assay, HepG2. The following applies: read-out: Anti-proliferative IC50, HepG2. The protocol: as §1, §2
Test [8] deals with Paclitaxel-resistant human ovarian carcinoma cell A2780/TAX. The test is described as follows: SRB anti-proliferative assay, drug-resistant A2780/TAX. Conditions: read-out: Anti-proliferative IC50, A2780/TAX. The protocol: as §1, §2
(§3) We also evaluated the anti-proliferation activities of selected compounds against drug-resistant cancer cell lines.

In test [9] the test system is incristine resistant human ileocecum carcinoma cell HCT-8/VCT. The test is described as follows: SRB anti-proliferative assay, drug-resistant HCT-8/VCT. Conditions: HCT8/VCT, read-out: Anti-proliferative IC50, HCT-8/VCT. The protocol: as §1, §2, §3
The subject of test [10] is cis-platinum resistant human lung cancer cell A549/CDDP. The test is described as follows: SRB anti-proliferative assay, drug-resistant A549/CDDP. Conditions: read-out: Anti-proliferative IC50, A549/CDDP. The protocol:
as §1, §2, §3

Test [11] deals with doxorubicin resistant breast cancer cell MCF-7/DOX. The test is described as follows: SRB anti-proliferative assay, drug-resistant MCF-7/DOX. Conditions: Homo sapiens, MCF7-DOX, read-out: Anti-proliferative IC50, MCF-7/DOX. The procedure: as §1, §2, §3
The mark [12] stands for this setting: paclitaxel-resistant A2780/TAX, SRB.
Setting [13] is: vincristine-resistant HCT-8/VCT, SRB.
Setting [14] is: cis-platinum resistant A549/CDDP, SRB.
The mark [15] stands for this setting: doxorubicin resistant MCF-7/DOX, SRB.

Turning to `COc1cccc2c1C(=O)c1c(O)c3c(c(O)c1C2=O)C[C@@](O)(C(=O)CO)C[C@@H]3O[C@H]1C[C@H](N)[C@H](O)[C@H](C)O1` [DOX, doxorubicin, reference compound], the IC50 in [1] (A2780, SRB, 48 h) turned out to be 83 nM; in test [2] (HCT-8, SRB, 48 h), 165 nM; in [3] (A549, SRB, 48 h) it was 291 nM; in [4] (MCF7, MCF-7, SRB, 48 h), 138 nM; in test [5] (CNE-2, CNE2, SRB, 48 h) it was 75 nM; in test [6] (SW480, SRB, 48 h), 98 nM. Besides, the IC50 in test [7] (HepG2, SRB, 48 h) stood at 170 nM; in test [8] (setting [12]), 1940 nM; in [9] (setting [13]), 3420 nM; in test [10] (setting [14]) it was 290 nM; in test [11] (setting [15]) it was 14600 nM.
On to `CC(=O)O[C@H]1C(=O)[C@@]2(C)[C@H]([C@H](OC(=O)c3ccccc3)[C@]3(O)C[C@H](OC(=O)[C@H](O)[C@@H](NC(=O)c4ccccc4)c4ccccc4)C(C)=C1C3(C)C)[C@]1(OC(C)=O)CO[C@@H]1C[C@@H]2O` [TAX, paclitaxel, reference compound], for which the IC50 was found to be 2600 nM in test [9] (setting [13]) and 9 nM in test [10] (setting [14]).
Turning to `CC[C@]1(O)C[C@H]2CN(CCc3c([nH]c4ccccc34)[C@@](C(=O)OC)(c3cc4c(cc3OC)N(C=O)[C@H]3[C@@](O)(C(=O)OC)[C@H](OC(C)=O)[C@]5(CC)C=CCN6CC[C@]43[C@@H]65)C2)C1` [VCT, vincristine, reference compound], the IC50 in [8] (setting [12]) is 927 nM; in test [9] (setting [13]) it was 1920 nM; in test [10] (setting [14]) it was 56 nM; in test [11] (setting [15]), 4250 nM.
For the molecule `COc1ccc(/C=C/C(=O)c2ccccc2-c2cccc(F)c2)cc1B(O)O` [compound 6, (E)-(5-(3-(3′-Fluoro[1,1′-biphenyl]-2-yl)-3-oxoprop-1-en-1-yl)-2-methoxyphenyl)boronic Acid], the IC50 in test [1] (A2780, SRB, 48 h) was 62 nM; in test [2] (HCT-8, SRB, 48 h) it was 54 nM; in test [3] (A549, SRB, 48 h), 59 nM; in test [4] (MCF7, MCF-7, SRB, 48 h) it was 83 nM; in test [5] (CNE-2, CNE2, SRB, 48 h), 55 nM; in test [6] (SW480, SRB, 48 h), 55 nM. Further, the IC50 was found to be 37 nM in test [7] (HepG2, SRB, 48 h); 124 nM in [8] (setting [12]); 78 nM in [9] (setting [13]); 63 nM in test [10] (setting [14]); 74 nM in [11] (setting [15]).
For `CN(C)c1ccc(/C=C/C(=O)c2ccccc2-c2cccc(F)c2)cc1` [compound 7, (E)-3-(4-(Dimethylamino)phenyl)-1-(3′-fluoro[1,1′-biphenyl]-2-yl)prop-2-en-1-one], the IC50 in test [1] (A2780, SRB, 48 h) stood at 73 nM; in test [2] (HCT-8, SRB, 48 h), 92 nM; in test [3] (A549, SRB, 48 h), 48 nM; in [4] (MCF7, MCF-7, SRB, 48 h), 48 nM; in test [5] (CNE-2, CNE2, SRB, 48 h), 25 nM; in test [6] (SW480, SRB, 48 h) it was 44 nM. Also, the IC50 in [7] (HepG2, SRB, 48 h) was 37 nM; in test [8] (setting [12]), 55 nM; in test [9] (setting [13]) it was 86 nM; in test [10] (setting [14]), 68 nM; in test [11] (setting [15]), 32 nM.
With `COc1ccc(/C=C/C(=O)c2ccccc2-c2ccc(OC)c(OC)c2OC)cc1B(O)O` [compound 8], the IC50 in [1] (A2780, SRB, 48 h) came to 98 nM; in test [2] (HCT-8, SRB, 48 h) it was 118 nM; in test [3] (A549, SRB, 48 h), 64 nM; in test [4] (MCF7, MCF-7, SRB, 48 h) it was 114 nM; in test [5] (CNE-2, CNE2, SRB, 48 h), 86 nM; in test [6] (SW480, SRB, 48 h), 74 nM. The IC50 in test [7] (HepG2, SRB, 48 h) worked out at 78 nM; in test [8] (setting [12]) it was 234 nM; in test [9] (setting [13]), 156 nM; in test [10] (setting [14]), 247 nM; in test [11] (setting [15]), 75 nM.
Consider `COc1ccc(-c2ccccc2C(=O)/C=C/c2ccc(N(C)C)cc2)c(OC)c1OC` [compound 9, (E)-1-(2′,3′,4′-trimethoxy[1,1′-biphenyl]-2-yl)-3-(4-(Dimethylamino)phenyl)prop-2-en-1-one], for which the IC50 in test [1] (A2780, SRB, 48 h) stood at 117 nM; in test [2] (HCT-8, SRB, 48 h), 153 nM; in test [3] (A549, SRB, 48 h), 85 nM; in test [4] (MCF7, MCF-7, SRB, 48 h), 124 nM; in test [5] (CNE-2, CNE2, SRB, 48 h), 53 nM; in [6] (SW480, SRB, 48 h) it was 37 nM. Further, the IC50 in [7] (HepG2, SRB, 48 h) stood at 72 nM; in [8] (setting [12]) it was 156 nM; in [9] (setting [13]) it was 169 nM; in test [10] (setting [14]), 401 nM; in [11] (setting [15]) it was 53 nM.
On to `COc1ccc(/C=C/C(=O)c2ccccc2-c2cccc(F)c2)cc1OP(=O)(O)O` [compound 10, (E)-(5-(3-(3′-Fluoro[1,1′-biphenyl]-2-yl)-3-oxoprop-1-en-1-yl)-2-Methoxyphenol) phosphate ester], for which the IC50 in [1] (A2780, 48 h) stood at 59 nM; in test [2] (HCT-8, 48 h) it was 61 nM; in [3] (A549, 48 h) it was 10 nM; in [4] (MCF7, 48 h), 51 nM; in test [5] (CNE-2, 48 h) it was 30 nM; in [6] (SW480, 48 h), 9 nM. For the same molecule, the IC50 was 10 nM in test [7] (HepG2, 48 h); 92 nM in test [8] (A2780/TAX); 115 nM in test [9]; 102 nM in test [10] (A549/CDDP); 10 nM in test [11].
For the molecule `COc1ccc(/C=C/C(=O)c2ccccc2-c2ccc(F)cc2)cc1OP(=O)(O)O` [compound 11, (E)-(5-(3-(4′-Fluoro[1,1′-biphenyl]-2-yl)-3-oxoprop-1-en-1-yl)-2-Methoxyphenol) phosphate ester], the IC50 came to 65 nM in test [1] (A2780, 48 h); 88 nM in [2] (HCT-8, 48 h); 23 nM in test [3] (A549, 48 h); 96 nM in [4] (MCF7, 48 h); 52 nM in test [5] (CNE-2, 48 h); 22 nM in test [6] (SW480, 48 h). In addition, the IC50 in test [7] (HepG2, 48 h) was found to be 39 nM; in test [8] (A2780/TAX), 125 nM; in [9], 263 nM; in test [10] (A549/CDDP), 301 nM; in [11] it was 26 nM.
On to `O=C(/C=C/c1cccc(O)c1)c1ccccc1-c1cccc(F)c1` [compound 12, (E)-1-(3′-Fluoro[1,1′-biphenyl]-2-yl)-3-(3-hydroxy)prop-2-en-1-one], for which the IC50 in [1] (A2780, SRB, 48 h) was determined as 39 nM; in test [2] (HCT-8, SRB, 48 h), 36 nM; in [3] (A549, SRB, 48 h), 44 nM; in test [4] (MCF7, MCF-7, SRB, 48 h), 87 nM; in test [5] (CNE-2, CNE2, SRB, 48 h), 55 nM; in test [6] (SW480, SRB, 48 h), 48 nM. Besides, the IC50 was 44 nM in [7] (HepG2, SRB, 48 h); 130 nM in test [8] (setting [12]); 117 nM in test [9] (setting [13]); 317 nM in test [10] (setting [14]); 26 nM in test [11] (setting [15]).
With `CN(C)c1ccc(/C=C/C(=O)c2ccccc2-c2cccc(F)c2)cc1O` [compound 13, (E)-1-(3′-Fluoro[1,1′-biphenyl]-2-yl)-3-(3-hydroxy-4-(Dimethylamino)phenyl)prop-2-en-1-one], the IC50 in test [1] (A2780, SRB, 48 h) was 10 nM; in test [2] (HCT-8, SRB, 48 h) it was 14 nM; in test [3] (A549, SRB, 48 h), 11 nM; in [4] (MCF7, MCF-7, SRB, 48 h), 69 nM; in test [5] (CNE-2, CNE2, SRB, 48 h), 15 nM; in test [6] (SW480, SRB, 48 h), 6 nM. Further, the IC50 in [7] (HepG2, SRB, 48 h) turned out to be 9 nM; in test [8] (setting [12]), 43 nM; in test [9] (setting [13]), 37 nM; in [10] (setting [14]) it was 69 nM; in [11] (setting [15]), 5 nM.
